The source of these data is ChEMBL document CHEMBL3045635, “Synthesis and in vitro antimicrobial evaluation of novel 2-amino-6-(phenylthio)-4-(2-(phenylthio)quinolin-3-yl)pyridine-3,5-dicarbonitriles” (2013).

Converted amounts (≈) assume the structure as drawn.

The MIC is the smallest concentration in the dilution series that meets the test's criterion for growth inhibition. A high value points to weaker potency.

What all share (format): functional
For one assay, the system named is Vibrio cholerae. As to the kind of experiment: Antibacterial activity against Vibrio cholerae MTCC 3906 after 24 hr by broth microdilution method. Conditions: MTCC 3906, 24 h. (Broth dilution looks for growth in wells or tubes with falling amounts of substance.)
In a further assay the test system is Escherichia coli. The experiment in a line: Antibacterial activity against Escherichia coli MTCC 443 after 24 hr by broth microdilution method. The settings on record: MTCC 443, 24 h.
The next assay deals with Clostridium tetani. As to the kind of experiment: Antibacterial activity against Clostridium tetani MTCC 449 after 24 hr by broth microdilution method. Conditions: MTCC 449, 24 h.
Another assay has as its system Streptococcus pneumoniae. The experiment in a line: Antibacterial activity against Streptococcus pneumoniae MTCC 1936 after 24 hr by broth microdilution method. Conditions: MTCC 1936, 24 h.
The next assay deals with Bacillus subtilis. As to the kind of experiment: Antibacterial activity against Bacillus subtilis MTCC 441 after 24 hr by broth microdilution method. Conditions: MTCC 441, 24 h.
A further assay has as its system Salmonella typhi. The experiment in a line: Antibacterial activity against Salmonella enterica subsp. enterica serovar Typhi MTCC 98 after 24 hr by broth microdilution method. Conditions: MTCC 98, 24 h.
The next assay relates to Aspergillus fumigatus. The experiment in a line: Antifungal activity against Aspergillus fumigatus MTCC 3008 after 48 hr by broth microdilution method.
The subject of the next assay is Candida albicans. As to the kind of experiment: Antifungal activity against Candida albicans MTCC 227 after 48 hr by broth microdilution method.

Turning to `CCn1cc(C(=O)O)c(=O)c2cc(F)c(N3CCNCC3)cc21` [NORFLOXACIN], the minimum inhibitory concentration (MIC) is 10 µg/mL (≈ 31.3 µM) with Vibrio cholerae; 10 µg/mL (≈ 31.3 µM) against Escherichia coli; 50 µg/mL (≈ 157 µM) in the assay on Clostridium tetani; 10 µg/mL (≈ 31.3 µM) against Streptococcus pneumoniae; 100 µg/mL (≈ 313 µM) against Bacillus subtilis; 10 µg/mL (≈ 31.3 µM) against Salmonella typhi.
Regarding NYSTATIN, the MIC against Aspergillus fumigatus and against Candida albicans was 100 µg/mL throughout.
On to `Cc1ccc(Sc2nc3ccccc3cc2C=O)cc1`, for which the MIC against Vibrio cholerae was determined as 250 µg/mL (≈ 895 µM); with Escherichia coli it was 200 µg/mL (≈ 716 µM); against Clostridium tetani, 250 µg/mL (≈ 895 µM); in the assay on Streptococcus pneumoniae, 250 µg/mL (≈ 895 µM); against Aspergillus fumigatus (MTCC 3008, 48 h), 200 µg/mL (≈ 716 µM); with Bacillus subtilis, 250 µg/mL (≈ 895 µM). Moreover, the MIC against Candida albicans (MTCC 227, 48 h) was 1000 µg/mL (≈ 3580 µM); against Salmonella typhi it was 250 µg/mL (≈ 895 µM).
For the molecule `O=Cc1cc2ccccc2nc1Sc1ccccc1`, the MIC against Vibrio cholerae amounted to 200 µg/mL (≈ 754 µM); with Escherichia coli it was 200 µg/mL (≈ 754 µM); against Clostridium tetani, 250 µg/mL (≈ 942 µM); against Streptococcus pneumoniae it was 200 µg/mL (≈ 754 µM); against Aspergillus fumigatus (MTCC 3008, 48 h), 1000 µg/mL (≈ 3770 µM); against Bacillus subtilis, 200 µg/mL (≈ 754 µM). The minimum inhibitory concentration (MIC) with Candida albicans (MTCC 227, 48 h) was found to be 250 µg/mL (≈ 942 µM); in the assay with Salmonella typhi, 250 µg/mL (≈ 942 µM).
In the case of `O=C(O)c1cn(C2CC2)c2cc(N3CCNCC3)c(F)cc2c1=O` [CIPROFLOXACIN], the MIC is 25 µg/mL (≈ 75.4 µM) in the assay on Vibrio cholerae, 25 µg/mL (≈ 75.4 µM) against Escherichia coli, 50 µg/mL (≈ 151 µM) against Streptococcus pneumoniae and 25 µg/mL (≈ 75.4 µM) in the assay on Salmonella typhi.
Regarding `Cc1ccc2nc(Sc3ccccc3)c(-c3c(C#N)c(N)nc(Sc4ccccc4)c3C#N)cc2c1`, the MIC against Vibrio cholerae is 250 µg/mL (≈ 498 µM); against Escherichia coli, 200 µg/mL (≈ 399 µM); against Clostridium tetani it was 250 µg/mL (≈ 498 µM); against Streptococcus pneumoniae, 250 µg/mL (≈ 498 µM); with Aspergillus fumigatus (MTCC 3008, 48 h) it was 250 µg/mL (≈ 498 µM); against Bacillus subtilis, 250 µg/mL (≈ 498 µM). Further, the MIC was found to be 1000 µg/mL (≈ 1990 µM) against Candida albicans (MTCC 227, 48 h) and 200 µg/mL (≈ 399 µM) with Salmonella typhi.
Turning to `N#Cc1c(N)nc(Sc2ccc(Cl)cc2)c(C#N)c1-c1cc2ccccc2nc1Sc1ccccc1`, the minimum inhibitory concentration (MIC) with Vibrio cholerae came to 250 µg/mL (≈ 479 µM); in the assay with Escherichia coli it was 250 µg/mL (≈ 479 µM); against Clostridium tetani it was 200 µg/mL (≈ 383 µM); with Streptococcus pneumoniae it was 500 µg/mL (≈ 958 µM); against Aspergillus fumigatus (MTCC 3008, 48 h) it was 1000 µg/mL (≈ 1920 µM); with Bacillus subtilis, 250 µg/mL (≈ 479 µM). In addition, the minimal inhibitory concentration (MIC) with Candida albicans (MTCC 227, 48 h) came out at 1000 µg/mL (≈ 1920 µM); against Salmonella typhi, 250 µg/mL (≈ 479 µM).
Consider `Cc1ccc(Sc2nc3ccc(C)cc3cc2-c2c(C#N)c(N)nc(Sc3ccccc3)c2C#N)cc1`, for which the MIC is 250 µg/mL (≈ 485 µM) in the assay with Vibrio cholerae; 100 µg/mL (≈ 194 µM) with Escherichia coli; 500 µg/mL (≈ 970 µM) against Clostridium tetani; 250 µg/mL (≈ 485 µM) in the assay with Streptococcus pneumoniae; 500 µg/mL (≈ 970 µM) in the assay on Aspergillus fumigatus (MTCC 3008, 48 h); 250 µg/mL (≈ 485 µM) in the assay on Bacillus subtilis. Besides, the MIC with Candida albicans (MTCC 227, 48 h) is over 1000 µg/mL; in the assay on Salmonella typhi, 200 µg/mL (≈ 388 µM).
For `Cc1ccc2nc(Sc3ccc(Cl)cc3)c(-c3c(C#N)c(N)nc(Sc4ccccc4)c3C#N)cc2c1`, the MIC against Vibrio cholerae was 100 µg/mL (≈ 187 µM); against Escherichia coli it was 62.5 µg/mL (≈ 117 µM); against Clostridium tetani, 250 µg/mL (≈ 466 µM); against Streptococcus pneumoniae, 250 µg/mL (≈ 466 µM); against Aspergillus fumigatus (MTCC 3008, 48 h) it was over 1000 µg/mL; in the assay on Bacillus subtilis it was 250 µg/mL (≈ 466 µM). The MIC stood at 1000 µg/mL (≈ 1870 µM) in the assay with Candida albicans (MTCC 227, 48 h) and 200 µg/mL (≈ 373 µM) against Salmonella typhi.
Take `O=Cc1cc2ccccc2nc1Sc1ccc(Cl)cc1`: the MIC against Vibrio cholerae was 200 µg/mL (≈ 667 µM); in the assay with Escherichia coli it was 250 µg/mL (≈ 834 µM); against Clostridium tetani, 200 µg/mL (≈ 667 µM); against Streptococcus pneumoniae, 100 µg/mL (≈ 334 µM); against Aspergillus fumigatus (MTCC 3008, 48 h), over 1000 µg/mL; with Bacillus subtilis, 250 µg/mL (≈ 834 µM). The minimum inhibitory concentration (MIC) stood at 1000 µg/mL (≈ 3340 µM) with Candida albicans (MTCC 227, 48 h) and 250 µg/mL (≈ 834 µM) with Salmonella typhi.
For the molecule `N#Cc1c(N)nc(Sc2ccccc2)c(C#N)c1-c1cc2ccccc2nc1Sc1ccc(Cl)cc1`, the minimal inhibitory concentration (MIC) in the assay with Vibrio cholerae came to 100 µg/mL (≈ 192 µM); with Escherichia coli, 100 µg/mL (≈ 192 µM); with Clostridium tetani, 200 µg/mL (≈ 383 µM); in the assay on Streptococcus pneumoniae, 200 µg/mL (≈ 383 µM); in the assay with Aspergillus fumigatus (MTCC 3008, 48 h) it was 1000 µg/mL (≈ 1920 µM); against Bacillus subtilis, 100 µg/mL (≈ 192 µM). Besides, the minimum inhibitory concentration (MIC) against Candida albicans (MTCC 227, 48 h) came to 200 µg/mL (≈ 383 µM); against Salmonella typhi, 200 µg/mL (≈ 383 µM).
As to `N#Cc1c(N)nc(Sc2ccc(Cl)cc2)c(C#N)c1-c1cc2ccccc2nc1Sc1ccc(Cl)cc1`, the MIC against Vibrio cholerae is 200 µg/mL (≈ 359 µM); against Escherichia coli it was 200 µg/mL (≈ 359 µM); against Clostridium tetani it was 500 µg/mL (≈ 898 µM); with Streptococcus pneumoniae it was 100 µg/mL (≈ 180 µM); against Aspergillus fumigatus (MTCC 3008, 48 h) it was 1000 µg/mL (≈ 1800 µM); against Bacillus subtilis, 250 µg/mL (≈ 449 µM). Besides, the MIC against Candida albicans (MTCC 227, 48 h) stood at 500 µg/mL (≈ 898 µM); in the assay with Salmonella typhi, 200 µg/mL (≈ 359 µM).
Turning to `CC1(C)S[C@@H]2[C@H](NC(=O)[C@H](N)c3ccccc3)C(=O)N2[C@H]1C(=O)O` [AMPICILLIN], the MIC against Vibrio cholerae came out at 100 µg/mL (≈ 286 µM); in the assay on Escherichia coli, 100 µg/mL (≈ 286 µM); against Clostridium tetani, 250 µg/mL (≈ 715 µM); in the assay on Streptococcus pneumoniae it was 100 µg/mL (≈ 286 µM); against Bacillus subtilis, 250 µg/mL (≈ 715 µM); in the assay on Salmonella typhi, 100 µg/mL (≈ 286 µM).
`Cc1ccc2nc(Sc3ccc(Cl)cc3)c(C=O)cc2c1`: the MIC against Vibrio cholerae worked out at 100 µg/mL (≈ 319 µM); against Escherichia coli, 100 µg/mL (≈ 319 µM); against Clostridium tetani, 500 µg/mL (≈ 1590 µM); against Streptococcus pneumoniae, 500 µg/mL (≈ 1590 µM); against Aspergillus fumigatus (MTCC 3008, 48 h), 1000 µg/mL (≈ 3190 µM); in the assay with Bacillus subtilis it was 500 µg/mL (≈ 1590 µM). For the same molecule, the MIC against Candida albicans (MTCC 227, 48 h) was 200 µg/mL (≈ 637 µM); with Salmonella typhi it was 125 µg/mL (≈ 398 µM).
